According to patent US20110039721A1, “METHOD FOR PREDICTION ABOUT CARCINOGENICITY OF SUBSTANCE IN RODENT” (Chemicals Evaluation and Research Institute, priority 2007, published 2011):

Legend:
[1] = tested on: mRNA expressed from the genes (A) to (D) in rat liver; assay: Behavior of genes (mRNA expression level, oligo-DNA microarray) in rat liver after 28-day oral administration; format: in vivo; conditions: mRNA vs vehicle control group; for Behavior of gene caused by administration of chemical substance, Gene No. 4846 / Behavior of gene caused by administration of chemical substance, Gene No. 2026 / Behavior of gene caused by administration of chemical substance, Gene No. 4218 / Behavior of gene caused by administration of chemical substance, Gene No. 6182 / Behavior of gene caused by administration of chemical substance, Gene No. 5600: gene group (A); for Behavior of gene caused by administration of chemical substance, Gene No. 4846: Unigene No. Rn.144554; for Behavior of gene caused by administration of chemical substance, Gene No. 2026 / Behavior of gene caused by administration of chemical substance, Gene No. 4218: Unigene No. Rn.167075; for Behavior of gene caused by administration of chemical substance, Gene No. 6182: Unigene No. Rn.5834; for Behavior of gene caused by administration of chemical substance, Gene No. 5600: Unigene No. Rn.9836; for Behavior of gene caused by administration of chemical substance, Gene No. 1494 / Behavior of gene caused by administration of chemical substance, Gene No. 2045 / Behavior of gene caused by administration of chemical substance, Gene No. 2203: gene group (B); for Behavior of gene caused by administration of chemical substance, Gene No. 1494: Unigene No. Rn.1430; for Behavior of gene caused by administration of chemical substance, Gene No. 2045: Unigene No. Rn.19329; for Behavior of gene caused by administration of chemical substance, Gene No. 2203: Unigene No. Rn.21240; for Behavior of gene caused by administration of chemical substance, Gene No. 533 / Behavior of gene caused by administration of chemical substance, Gene No. 725 / Behavior of gene caused by administration of chemical substance, Gene No. 1163 / Behavior of gene caused by administration of chemical substance, Gene No. 4973 / Behavior of gene caused by administration of chemical substance, Gene No. 4095 / Behavior of gene caused by administration of chemical substance, Gene No. 1334 / Behavior of gene caused by administration of chemical substance, Gene No. 6620 / Behavior of gene caused by administration of chemical substance, Gene No. 6303 / Behavior of gene caused by administration of chemical substance, Gene No. 5878 / Behavior of gene caused by administration of chemical substance, Gene No. 1131 / Behavior of gene caused by administration of chemical substance, Gene No. 1562 / Behavior of gene caused by administration of chemical substance, Gene No. 1741 / Behavior of gene caused by administration of chemical substance, Gene No. 893 / Behavior of gene caused by administration of chemical substance, Gene No. 6026 / Behavior of gene caused by administration of chemical substance, Gene No. 154 / Behavior of gene caused by administration of chemical substance, Gene No. 1993 / Behavior of gene caused by administration of chemical substance, Gene No. 813 / Behavior of gene caused by administration of chemical substance, Gene No. 2494 / Behavior of gene caused by administration of chemical substance, Gene No. 2546 / Behavior of gene caused by administration of chemical substance, Gene No. 3776 / Behavior of gene caused by administration of chemical substance, Gene No. 3929 / Behavior of gene caused by administration of chemical substance, Gene No. 1119 / Behavior of gene caused by administration of chemical substance, Gene No. 6742 / Behavior of gene caused by administration of chemical substance, Gene No. 5634: gene group (C); for Behavior of gene caused by administration of chemical substance, Gene No. 533: Unigene No. Rn.106184; for Behavior of gene caused by administration of chemical substance, Gene No. 725: Unigene No. Rn.108075; for Behavior of gene caused by administration of chemical substance, Gene No. 1163: Unigene No. Rn.11766; for Behavior of gene caused by administration of chemical substance, Gene No. 4973: Unigene No. Rn.118529; for Behavior of gene caused by administration of chemical substance, Gene No. 4095: Unigene No. Rn.119024; for Behavior of gene caused by administration of chemical substance, Gene No. 1334 / Behavior of gene caused by administration of chemical substance, Gene No. 6620: Unigene No. Rn.120914; for Behavior of gene caused by administration of chemical substance, Gene No. 6303: Unigene No. Rn.123063; for Behavior of gene caused by administration of chemical substance, Gene No. 5878: Unigene No. Rn.143213; for Behavior of gene caused by administration of chemical substance, Gene No. 1131: Unigene No. Rn.144946; for Behavior of gene caused by administration of chemical substance, Gene No. 1562: Unigene No. Rn.14744; for Behavior of gene caused by administration of chemical substance, Gene No. 1741: Unigene No. Rn.1647; for Behavior of gene caused by administration of chemical substance, Gene No. 893: Unigene No. Rn.164817; for Behavior of gene caused by administration of chemical substance, Gene No. 6026: Unigene No. Rn.167685; for Behavior of gene caused by administration of chemical substance, Gene No. 154: Unigene No. Rn.185941; for Behavior of gene caused by administration of chemical substance, Gene No. 1993: Unigene No. Rn.18728; for Behavior of gene caused by administration of chemical substance, Gene No. 813: Unigene No. Rn.201760; for Behavior of gene caused by administration of chemical substance, Gene No. 2494: Unigene No. Rn.23969; for Behavior of gene caused by administration of chemical substance, Gene No. 2546: Unigene No. Rn.24561; for Behavior of gene caused by administration of chemical substance, Gene No. 3776: Unigene No. Rn.43232; for Behavior of gene caused by administration of chemical substance, Gene No. 3929: Unigene No. Rn.4620; for Behavior of gene caused by administration of chemical substance, Gene No. 1119: Unigene No. Rn.9757; for Behavior of gene caused by administration of chemical substance, Gene No. 6742: Unigene No. Rn.9779; for Behavior of gene caused by administration of chemical substance, Gene No. 5634: Unigene No. Rn.9862; for Behavior of gene caused by administration of chemical substance, Gene No. 5726: gene group (D), Unigene No. Rn.9939
Procedure, shortened: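 Liver mRNA measured by oligo-DNA microarray after 28 days of once-daily oral gavage in 5-week-old male F344 rats (n=4 per group), with vehicle controls given equal solvent volume. Significance threshold: 1.5-fold up or down versus control, with changes opposite in direction to other carcinogens counted as not significant.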

liver = conditions: in vivo; cited from earlier work
rodent = conditions: in vivo; cited from earlier work

C=CCc1ccc2c(c1)OCO2 [TS025, Safrole]
Behavior of gene caused by administration of chemical substance, Gene No. 4846 [1]: + | Behavior of gene caused by administration of chemical substance, Gene No. 2026 [1]: − | Behavior of gene caused by administration of chemical substance, Gene No. 4218 [1]: + | Behavior of gene caused by administration of chemical substance, Gene No. 6182 [1]: + | Behavior of gene caused by administration of chemical substance, Gene No. 5600 [1]: + | Behavior of gene caused by administration of chemical substance, Gene No. 1494 [1]: + | Behavior of gene caused by administration of chemical substance, Gene No. 2045 [1]: + | Behavior of gene caused by administration of chemical substance, Gene No. 2203 [1]: + | Behavior of gene caused by administration of chemical substance, Gene No. 533 [1]: + | Behavior of gene caused by administration of chemical substance, Gene No. 725 [1]: + | Behavior of gene caused by administration of chemical substance, Gene No. 1163 [1]: − | Behavior of gene caused by administration of chemical substance, Gene No. 4973 [1]: + | Behavior of gene caused by administration of chemical substance, Gene No. 4095 [1]: + | Behavior of gene caused by administration of chemical substance, Gene No. 1334 [1]: − | Behavior of gene caused by administration of chemical substance, Gene No. 6620 [1]: − | Behavior of gene caused by administration of chemical substance, Gene No. 6303 [1]: + | Behavior of gene caused by administration of chemical substance, Gene No. 5878 [1]: − | Behavior of gene caused by administration of chemical substance, Gene No. 1131 [1]: − | Behavior of gene caused by administration of chemical substance, Gene No. 1562 [1]: − | Behavior of gene caused by administration of chemical substance, Gene No. 1741 [1]: + | Behavior of gene caused by administration of chemical substance, Gene No. 893 [1]: − | Behavior of gene caused by administration of chemical substance, Gene No. 6026 [1]: − | Behavior of gene caused by administration of chemical substance, Gene No. 154 [1]: + | Behavior of gene caused by administration of chemical substance, Gene No. 1993 [1]: − | Behavior of gene caused by administration of chemical substance, Gene No. 813 [1]: + | Behavior of gene caused by administration of chemical substance, Gene No. 2494 [1]: − | Behavior of gene caused by administration of chemical substance, Gene No. 2546 [1]: − | Behavior of gene caused by administration of chemical substance, Gene No. 3776 [1]: + | Behavior of gene caused by administration of chemical substance, Gene No. 3929 [1]: − | Behavior of gene caused by administration of chemical substance, Gene No. 1119 [1]: − | Behavior of gene caused by administration of chemical substance, Gene No. 6742 [1]: + | Behavior of gene caused by administration of chemical substance, Gene No. 5634 [1]: + | Behavior of gene caused by administration of chemical substance, Gene No. 5726 [1]: − | Liver carcinogenicity (liver): Cr+ | Carcinogenicity (rodent): C+

ClC1=C(Cl)C2(Cl)C3C4C=CC(C4)C3C1(Cl)C2(Cl)Cl (stereo not shown) [TS015, Aldrin]
Behavior of gene caused by administration of chemical substance, Gene No. 4846 [1]: − | Behavior of gene caused by administration of chemical substance, Gene No. 2026 [1]: − | Behavior of gene caused by administration of chemical substance, Gene No. 4218 [1]: − | Behavior of gene caused by administration of chemical substance, Gene No. 6182 [1]: + | Behavior of gene caused by administration of chemical substance, Gene No. 5600 [1]: − | Behavior of gene caused by administration of chemical substance, Gene No. 1494 [1]: − | Behavior of gene caused by administration of chemical substance, Gene No. 2045 [1]: + | Behavior of gene caused by administration of chemical substance, Gene No. 2203 [1]: + | Behavior of gene caused by administration of chemical substance, Gene No. 533 [1]: − | Behavior of gene caused by administration of chemical substance, Gene No. 725 [1]: − | Behavior of gene caused by administration of chemical substance, Gene No. 1163 [1]: − | Behavior of gene caused by administration of chemical substance, Gene No. 4973 [1]: − | Behavior of gene caused by administration of chemical substance, Gene No. 4095 [1]: − | Behavior of gene caused by administration of chemical substance, Gene No. 1334 [1]: − | Behavior of gene caused by administration of chemical substance, Gene No. 6620 [1]: − | Behavior of gene caused by administration of chemical substance, Gene No. 6303 [1]: − | Behavior of gene caused by administration of chemical substance, Gene No. 5878 [1]: − | Behavior of gene caused by administration of chemical substance, Gene No. 1131 [1]: − | Behavior of gene caused by administration of chemical substance, Gene No. 1562 [1]: − | Behavior of gene caused by administration of chemical substance, Gene No. 1741 [1]: − | Behavior of gene caused by administration of chemical substance, Gene No. 893 [1]: − | Behavior of gene caused by administration of chemical substance, Gene No. 6026 [1]: − | Behavior of gene caused by administration of chemical substance, Gene No. 154 [1]: − | Behavior of gene caused by administration of chemical substance, Gene No. 1993 [1]: − | Behavior of gene caused by administration of chemical substance, Gene No. 813 [1]: − | Behavior of gene caused by administration of chemical substance, Gene No. 2494 [1]: + | Behavior of gene caused by administration of chemical substance, Gene No. 2546 [1]: − | Behavior of gene caused by administration of chemical substance, Gene No. 3776 [1]: − | Behavior of gene caused by administration of chemical substance, Gene No. 3929 [1]: − | Behavior of gene caused by administration of chemical substance, Gene No. 1119 [1]: − | Behavior of gene caused by administration of chemical substance, Gene No. 6742 [1]: − | Behavior of gene caused by administration of chemical substance, Gene No. 5634 [1]: − | Behavior of gene caused by administration of chemical substance, Gene No. 5726 [1]: − | Liver carcinogenicity (liver): Cr− | Carcinogenicity (rodent): C+
